As a reminder, the MIC is the lowest concentration found to suppress growth.

In brackets after ≈: the same amount, converted by molar mass. A value given as a limit tells only on which side of the number the result lay.

The subject of assay [1] is Fusobacterium necrophorum. In words: MIC against anaerobic bacteria, standard agar-dilution assay (Table IX). Type of assay: cell-based. The conditions noted are these: 1 strain; Gram-negative anaerobe; 24-hour incubation.
Assay [2] has as its system Peptostreptococcus anaerobius. Described as above. It is filed as cell-based. The conditions noted are these: 8 strains; Gram-positive anaerobe; 24-hour incubation.
For assay [3], the system named is experimental descending pyelonephritis infection in rats. In words: Rat Descending Pyelonephritis Test (Table XI). Type of assay: in vivo. The conditions noted are these: for protection in experimental descending pyelonephritis infection, compared with vancomycin: rats. The protocol: In one important aspect of their antibacterial activity, the A82846 antibiotics are useful for treating pyelonephritis. […] This test was carried out using a procedure like that described in U.S. Pat. No. 4,208,403.
^a Doses twice per day subcutaneously for 6 days

A further assay deals with Bacteroides fragilis. In words: MIC against anaerobic bacteria, standard agar-dilution assay (Table IX). Type of assay: cell-based. The note with it: 3 strains; Gram-negative anaerobe; 24-hour incubation.
The test system of the next assay is Streptococcus mutans. In words: MIC by standard agar-dilution assay (Table VIII). Type of assay: cell-based. The conditions noted are these: 2 strains tested. The protocol: (§1) The MIC's in Tables VII and VIII were determined by standard agar-dilution assays.
The next assay concerns Streptococcus salivaris. In words: MIC by standard agar-dilution assay (Table VIII). It is filed as cell-based. The conditions noted are these: 1 strain tested. The protocol: as §1
The next assay concerns Streptococcus pyogenes. In words: MIC by standard agar-dilution assay (Table VIII). The conditions noted are these: 12 strains tested. It is filed as cell-based. How it is done: as §1
Another assay deals with Streptococcus sanguis. In words: MIC by standard agar-dilution assay (Table VIII). Type of assay: cell-based. The note with it: 4 strains tested. The protocol: as §1
Assay [4] has as its system Staphylococcus epidermidis. In words: MIC by standard agar-dilution assay (Table VIII). It is filed as cell-based. The conditions noted are these: 20 strains tested. How it is done:
as §1

For a further assay, the system named is Staphylococcus aureus. In words: MIC by standard agar-dilution assay (Table VIII). It is filed as cell-based. The conditions noted are these: 20 strains tested. How it is done:
as §1

The test system of another assay is Streptococcus pneumoniae. In words: MIC by standard agar-dilution assay (Table VIII). Type of assay: cell-based. The note with it: 20 strains tested. The protocol: as §1
In assay [5] the test system is Streptococcus sp. group. D. In words: MIC by standard agar-dilution assay (Table VIII). The note with it: 20 strains tested. Type of assay: cell-based. How it is done: as §1
The mark [6] stands for this setting: 2 mg/kg × 12, subcutaneous twice per day for 6 days.
Setting [7] is: 5 mg/kg × 12, subcutaneous twice per day for 6 days.
Setting [8] is: 10 mg/kg × 12, subcutaneous twice per day for 6 days.

In the case of `CN[C@H](CC(C)C)C(=O)N[C@H]1C(=O)N[C@@H](CC(N)=O)C(=O)N[C@H]2C(=O)N[C@H]3C(=O)N[C@H](C(=O)N[C@@H](C(=O)O)c4cc(O)cc(O)c4-c4cc3ccc4O)[C@H](O[C@@H]3C[C@@](C)(N)[C@H](O)[C@@H](C)O3)c3ccc(cc3)Oc3cc2cc(c3O[C@H]2O[C@@H](CO)[C@H](O)[C@@H](O)[C@@H]2O[C@H]2C[C@](C)(N)[C@@H](O)[C@H](C)O2)Oc2ccc(cc2Cl)[C@H]1O` [A82846A], the MIC in [1] was 128 µg/mL (≈ 82.2 µM); in [2] it was 0.06 to 2 µg/mL; in the assay with Bacteroides fragilis it was more than 128 µg/mL; in the assay with Streptococcus mutans, 0.125 to 0.5 µg/mL; in the assay with Streptococcus salivaris, 1.0 µg/mL (≈ 0.642 µM); in the assay on Streptococcus pyogenes, 0.125 to 0.25 µg/mL. The MIC in the assay on Streptococcus sanguis is 0.25 to 0.5 µg/mL; in [4] it was 0.25 to 2.0 µg/mL; with Staphylococcus aureus it was 0.125 to 1.0 µg/mL; with Streptococcus pneumoniae, not above 0.015 to 0.25 µg/mL; in [5], 0.25 to 1.0 µg/mL. Moreover, the “Percent of Rats Cured” value was 63% in [3] (setting [6]), 75% in [3] (setting [7]) and 88% in [3] (setting [8]). The entries for the “Percent of Rats with a 4-Log Reduction in Titer” value in assay [3] (setting [6]), in assay [3] (setting [7]) and in assay [3] (setting [8]) were 100%, 88% and 100%, respectively. Moreover, in assay [3], the “protection in experimental descending pyelonephritis infection, compared with vancomycin” value was “more effective than vancomycin”.
For `CN[C@H](CC(C)C)C(=O)N[C@H]1C(=O)N[C@@H](CC(N)=O)C(=O)N[C@H]2C(=O)N[C@H]3C(=O)N[C@H](C(=O)N[C@H](C(=O)O)c4cc(O)cc(O)c4-c4cc3ccc4O)[C@H](O[C@H]3C[C@](C)(N)[C@@H](O)[C@H](C)O3)c3ccc(c(Cl)c3)Oc3cc2cc(c3O[C@@H]2O[C@H](CO)[C@@H](O)[C@H](O)[C@H]2O[C@H]2C[C@](C)(N)[C@@H](O)[C@H](C)O2)Oc2ccc(cc2Cl)[C@H]1O` [A82846B], the MIC is 128 µg/mL (≈ 80.4 µM) in [1]; 0.06 to 8 µg/mL in assay [2]; more than 128 µg/mL in the assay with Bacteroides fragilis; 0.125 to 1.0 µg/mL with Streptococcus mutans; 0.25 µg/mL (≈ 0.157 µM) with Streptococcus salivaris; 0.125 to 0.25 µg/mL in the assay with Streptococcus pyogenes. Besides, the MIC was 0.25 µg/mL (≈ 0.157 µM) against Streptococcus sanguis; 0.5 to 1.0 µg/mL in [4]; 0.25 to 1.0 µg/mL in the assay with Staphylococcus aureus; 0.125 to 0.25 µg/mL in the assay with Streptococcus pneumoniae; 0.25 to 1.0 µg/mL in assay [5]. In addition, the figures for the “Percent of Rats Cured” value in assay [3] (setting [6]), in assay [3] (setting [7]) and in assay [3] (setting [8]) were 50%, 100% and 100%, respectively. The “Percent of Rats with a 4-Log Reduction in Titer” value in assay [3] (setting [6]) amounted to 88%; in [3] (setting [7]) it was 100%; in assay [3] (setting [8]), 100%. Further, the “protection in experimental descending pyelonephritis infection, compared with vancomycin” value in assay [3] is reported as “more effective than vancomycin”.

The values above are taken from patent US5843437A, “A82846 antibiotics” (Eli Lilly and Company, priority 1995, dated 1998).
